Reference: US8436183B2, “Synthetic multimerizing agents” (ARIAD Pharmaceuticals, Inc., priority 1994, dated 2013)
Structures can show the parent of a compound that is named as a salt. Where two headings read alike, the source gives them in different places.

Legend:
FKBP F36L = FKBP F36L (Homo sapiens, UniProt P62942, F37L); assay: Competitive Binding FP Assay, F36L mutant FKBP
Procedure: (§1) Affinities of bumped synthetic ligands for FKBP were determined using a competitive assay based on fluorescence polarization (FP). […] The assay yields IC50 values that are related to the affinity of the competitive ligand for the protein.
(§2) For competition FP assays, the appropriate protein concentration (giving ˜90% binding of probe) was first determined by direct binding of probe to protein (see eg. Beacon FP System Applications Guide, Panvera Corp, Madison, Wis.). All binding assay procedures were performed at room temperature. Serial dilutions of each protein were prepared in 50 mM potassium phosphate pH 7.8/150 mM NaCl/100 μg/ml bovine gamma globulin (“FP buffer”: prepared using only low-fluorescence reagents from Panvera), and 100 μl volumes transferred to wells of a Dynatech micro-fluor black 96-well fluorescence plate. 100 μl of 10 nM 4 in FP buffer plus 2% ethanol (prepared from an ethanol stock of the probe) was then added to each well with mixing. Duplicate control wells contained FP buffer instead of FKBP (for 0% probe binding) or 10 μM wild-type FKBP (for 100% binding).
The plates were stored covered in the dark for approximately 30 min to permit equilibration and then the fluorescence polarization of the sample in each well was read on a Jolley FPM-2 FP plate reader (Jolley Consulting and Research, Inc., Grayslake, Ill.) in accordance with the manufacturer's recommendations. Polarization (mP units) for each protein concentration was plotted (y axis) vs. final concentration of FKBP (x axis). Concentrations were determined by OD280 measurements. Arbitrary units were used for non-quantitated proteins. […]
(§3) The plates were stored covered in the dark for approximately 30 min to permit equilibration and then the fluorescence polarization of the sample in each well read on a Jolley FPM-2 FP plate reader (Jolley Consulting and Research, Inc., Grayslake, Ill.) in accordance with the manufacturer's recommendations. […] For incomplete curves the IC50 was determined by interpolation.

FKBP F36M = molecular target: T1, FKBP F36M (Homo sapiens, UniProt P62942, F37M); assay: Competitive Binding FP Assay, F36M mutant FKBP
T1 construct: made in house
T1 sequence (P62942 whole entry F37M): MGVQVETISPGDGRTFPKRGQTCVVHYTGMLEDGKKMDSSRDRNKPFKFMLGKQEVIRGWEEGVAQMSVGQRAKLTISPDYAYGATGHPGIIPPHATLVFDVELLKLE
Procedure: as §1, §2
(§4) The plates were stored covered in the dark for approximately 30 min to permit equilibration and then the fluorescence polarization of the sample in each well was read on a Jolley FPM-2 FP plate reader (Jolley Consulting and Research, Inc., Grayslake, Ill.) in accordance with the manufacturer's recommendations. Polarization (mP units) for each protein concentration was plotted (y axis) vs. final concentration of FKBP (x axis). Concentrations were determined by OD280 measurements. Arbitrary units were used for non-quantitated proteins. Non-linear least square analysis was used to fit the curve and extract the Kd of the protein for the probe (in cases where the protein concentration was known) using the following four-parameter equation: y=M3+(((x+M1+M2)−SQRT(((x+M1+M2)^2)−(4*x*M1)))/(2*(M1)))*(M4−M3) where M1 is the probe concentration, M2 the Kd, and M3 and M4 the minimum and maximum mP values respectively.
(§5) Serial 10-fold dilutions of each synthetic ligand were prepared in 100% ethanol in glass vials and stored on ice. All other manipulations were performed at room temperature. […] 2.0 μl samples of the synthetic ligands were then transferred in duplicate to the wells with mixing. Finally, a probe solution was prepared containing 10 nM 4 in 0.1% ethanol/FP buffer, and 100 μl added to each well with mixing. Duplicate control wells contained ethanol instead of FKBP ligand (for 100% probe binding) or ethanol instead of FKBP ligand and FP buffer instead of FKBP (0% binding).
(§6) The plates were stored covered in the dark for approximately 30 min to permit equilibration and then the fluorescence polarization of the sample in each well read on a Jolley FPM-2 FP plate reader (Jolley Consulting and Research, Inc., Grayslake, Ill.) in accordance with the manufacturer's recommendations. The mean polarization (mP units) for each competitor concentration, in some cases converted to % total binding by reference to the control values, was plotted (y axis) vs. log molar final concentration of competitor (x axis). Non-linear least square analysis was used to fit the curve and extract the IC50 using the following equation: y=M1+(M4−M1)/(1+exp(M2*(M3−x))) where M3 is the IC50. For incomplete curves the IC50 was determined by interpolation.

FKBP F36I = molecular target: T2, FKBP F36I (Homo sapiens, UniProt P62942, F37I); assay: Competitive Binding FP Assay, F36I mutant FKBP
T2 construct: made in house
T2 sequence (P62942 whole entry F37I): as the sequence (P62942 whole entry F37M) above, with M37I counted along it
Procedure: as §1, §2, §4, §5, §6

FKBP F36A = molecular target: T3, FKBP F36A (Homo sapiens, UniProt P62942, F37A); assay: Competitive Binding FP Assay, F36A mutant FKBP
T3 construct: made in house
T3 sequence (P62942 whole entry F37A): as the sequence (P62942 whole entry F37M) above, with M37A counted along it
Procedure: as §1, §2, §4, §5, §6

wild-type human FKBP12 [1] = molecular target: T4, wild-type human FKBP12 (Homo sapiens, UniProt P62942); assay: Competitive Binding FP Assay, wild-type FKBP; settings: for wild-type, % @ 100000: Synthetic Monomers table, @ 100000 nM competitor
T4 sequence (P62942 whole entry): as the sequence (P62942 whole entry F37M) above, with M37F counted along it
Procedure: as §1, §2, §4
(§7) Serial 10-fold dilutions of each synthetic ligand were prepared in 100% ethanol in glass vials and stored on ice. All other manipulations were performed at room temperature. […] Finally, a probe solution was prepared containing 10 nM 4 in 0.1% ethanol/FP buffer, and 100 μl added to each well with mixing. […]
as §3

FKBP F36S = molecular target: T5, FKBP F36S (Homo sapiens, UniProt P62942, F37S); assay: Competitive Binding FP Assay, F36S mutant FKBP; settings: Synthetic Monomers table; normalized to FK506 run in the same experiment
T5 construct: made in house
T5 sequence (P62942 whole entry F37S): as the sequence (P62942 whole entry F37M) above, with M37S counted along it
Procedure: as §1
(§8) For competition FP assays, the appropriate protein concentration (giving ˜90% binding of probe) was first determined by direct binding of probe to protein (see eg. Beacon FP System Applications Guide, Panvera Corp, Madison, Wis.). All binding assay procedures were performed at room temperature. Serial dilutions of each protein were prepared in 50 mM potassium phosphate pH 7.8/150 mM NaCl/100 μg/ml bovine gamma globulin (“FP buffer”: prepared using only low-fluorescence reagents from Panvera), and 100 μl volumes transferred to wells of a Dynatech micro-fluor black 96-well fluorescence plate. 100 μl of 10 nM 4 in FP buffer plus 2% ethanol (prepared from an ethanol stock of the probe) was then added to each well with mixing. […]
(§9) The plates were stored covered in the dark for approximately 30 min to permit equilibration and then the fluorescence polarization of the sample in each well was read on a Jolley FPM-2 FP plate reader (Jolley Consulting and Research, Inc., Grayslake, Ill.) in accordance with the manufacturer's recommendations. […] Concentrations were determined by OD280 measurements. Arbitrary units were used for non-quantitated proteins. […]

[2] = molecular target: T6, FAS-FKBP fusion (36V FKBP) in HT1080 cells (Homo sapiens, UniProt P62942, F37V); assay: Apoptosis Assay: Fas killing (36V, stable); type: cell-based; settings: mean values
T6 construct: fused on or other part: Fas intracellular effector domain (gives the death read-out)
T6 sequence (P62942 2-108 F37V limits assumed): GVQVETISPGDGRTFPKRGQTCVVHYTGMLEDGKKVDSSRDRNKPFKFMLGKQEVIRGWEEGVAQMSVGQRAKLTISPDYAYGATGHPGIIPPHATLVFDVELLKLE
Source text: In this case, one uses cells which constitutively express a detectable product. The cells also contain and are capable of expressing DNAs encoding chimeric proteins comprising one or more immunophilin-derived ligand binding domains and one or more effector domains, such as the intracellular domain of FAS, capable, upon multimerization, of triggering cell death. […] The cells are maintained or cultured in a culture medium permitting cell growth or continued viability. The cells or medium are assayed for the presence of the constitutive cellular product, and a base-line level of reporter is thus established. One may use cells engineered for constitutive production of hGH or any other conveniently detectable product to serve as the reporter. […]
The ability of a dimerizer to activate the Fas signal transduction pathway and trigger cell death in cells engineered to express a FAS-FKBP fusion can be tested in cells appropriately transduced by retroviral vectors to express the desired fusion protein. […] The next day, medium is removed and replaced with medium containing 10% Alamar Blue viability indicator, which changes absorbance properties as a function of reducing agent released into the medium by cell metabolism. Alternatively, cells are counted. Optical density at the appropriate wavelength is measured using a platereader spectroscope.

wild-type human FKBP12 [3] = molecular target: T4, wild-type human FKBP12
Procedure: as §1, §2, §4, §7, §3

FKBP F36V = FKBP F36V (Homo sapiens, UniProt P62942, F37V); assay: Competitive Binding FP Assay, F36V mutant FKBP
Chain of FKBP F36V (P62942 whole entry F37V): as the sequence (P62942 whole entry F37M) above, with M37V counted along it
Procedure: as §1, §8, §9

[4] = Synthetic Monomers table, normalized to FK506 run in the same experiment

Chain of FKBP F36L (P62942 whole entry F37L): as the sequence (P62942 whole entry F37M) above, with M37L counted along it

COc1ccc(CC[C@@H](OC(=O)[C@@H]2CCCCN2C(=O)Cc2ccccc2)c2cccc(OCC(=O)O)c2)cc1OC [AP1780]
IC50 (FKBP F36L; read-out: F36L IC50, Synthetic Monomers table, normalized to FK506 run in the same experiment): 3560 nM

COc1ccc(CCC(OC(=O)C2CCCCN2C(=O)C(Cc2ccccc2)c2ccccc2)c2cccc(OCC(=O)O)c2)cc1OC (mixture of isomers) [AP1831]
IC50 (FKBP F36M; [4]): 169 nM
IC50 (FKBP F36I; [4]): 124 nM
IC50 (FKBP F36A; [4]): 447 nM

COc1ccc(CC[C@@H](OC(=O)[C@@H]2CCCCN2C(=O)C(c2ccccc2)c2ccccc2)c2cccc(OCC(=O)O)c2)cc1OC [AP14245]
wild-type, % @ 100000 (wild-type human FKBP12 [1]): 73% @ 100000

CCC(C)(C)C(=O)C(=O)N1CCCC[C@H]1C(=O)O[C@H](CCc1ccc(OC)c(OC)c1)c1cccc(OCC(=O)O)c1 [AP1497]
IC50 (FKBP F36S): 1820 nM
IC50 (FKBP F36I; [4]): 43 nM
IC50 (FKBP F36A; [4]): 174 nM

AP20187
EC50 [2]: < 1 nM

CCC(C(=O)N1CCCC[C@H]1C(=O)O[C@H](CCc1ccc(OC)c(OC)c1)c1cccc(OCC(=O)O)c1)c1ccc2c(c1)OCO2 (stereo partly drawn) [AP1839]
IC50 (wild-type human FKBP12 [3]): > 16900 nM

COc1ccc(CCC(OC(=O)C2CCCCN2C(=O)C(c2ccccc2)C2CCCC2)c2cccc(OCC(=O)O)c2)cc1OC (mixture of isomers) [AP1778]
IC50 (FKBP F36I; [4]): 41 nM
IC50 (FKBP F36A; [4]): 75 nM

COc1ccc(CCC(OC(=O)C2CCCCN2C(=O)C(c2ccccc2)C(C)C)c2cccc(OCC(=O)O)c2)cc1OC (mixture of isomers) [AP1781]
IC50 (FKBP F36M; [4]): 55 nM
IC50 (FKBP F36I; [4]): 36 nM
IC50 (FKBP F36A; [4]): 109 nM

CC[C@H](C(=O)N1CCCC[C@H]1C(=O)O[C@H](CCN1CCOCC1)c1cccc(OCC(=O)O)c1)c1cc(OC)c(OC)c(OC)c1 [AP14246, (1R)-1-(3-(carboxymethoxy)phenyl)-3-(morpholino)-1-propyl (2S)-1-((2S)-(3,4,5-trimethoxyphenyl)butyryl)-2-piperidine carboxylate]
IC50 (FKBP F36M): 52 nM
IC50 (FKBP F36V): 16.5 nM
IC50 (FKBP F36I): 32 nM
wild-type, % @ 100000 (wild-type human FKBP12 [1]): 75% @ 100000
IC50 (FKBP F36A): 77 nM
IC50 (FKBP F36L): 68 nM

CC[C@H](C(=O)N1CCCC[C@H]1C(=O)O[C@H](CCc1cccnc1)c1cccc(OCC(=O)O)c1)c1cc(OC)c(OC)c(OC)c1 [AP14252, hydrochloride]
IC50 (FKBP F36M): 54 nM
IC50 (FKBP F36I): 6.7 nM
IC50 (FKBP F36A): 63 nM

CC[C@H](C(=O)N1CCCC[C@H]1C(=O)O[C@H](CCc1ccc(OC)c(OC)c1)c1cccc(OCC(=O)O)c1)c1cc(OC)c(OC)c(OC)c1 [AP1867]
IC50 (FKBP F36M): 10 nM
IC50 (FKBP F36V): 1.8 nM
IC50 (FKBP F36I): 5.1 nM
IC50 (wild-type human FKBP12 [1]): 2930 nM
IC50 (FKBP F36A): 18 nM
IC50 (FKBP F36L): 6.2 nM
